Measurements: publication PMC9823632, “Nitrogen Acquisition and Transport in the Ectomycorrhizal Symbiosis—Insights from the Interaction between an Oak Tree and Pisolithus tinctorius” (Plants, 2022)

Experiments:
QsAMT1.2-like (QsAMT1.2) = molecular target: T1, QsAMT1.2-like (QsAMT1.2) (Quercus suber, UniProt Z9N9G6J3T1); experiment: […]-methylammonium uptake in transformed yeast, Michaelis-Menten and Lineweaver-Burk; type: cell-based; details: labelled compound; yeast 31019b; substrate of the Km taken from the methods; read-out: apparent Km
T1 construct: full-length cDNA from ectomycorrhizal cork oak roots in pDR196, expressed in yeast strain 31019b (mep1 mep2 mep3 deleted)
T1 sequence (Z9N9G6J3T1 1-510): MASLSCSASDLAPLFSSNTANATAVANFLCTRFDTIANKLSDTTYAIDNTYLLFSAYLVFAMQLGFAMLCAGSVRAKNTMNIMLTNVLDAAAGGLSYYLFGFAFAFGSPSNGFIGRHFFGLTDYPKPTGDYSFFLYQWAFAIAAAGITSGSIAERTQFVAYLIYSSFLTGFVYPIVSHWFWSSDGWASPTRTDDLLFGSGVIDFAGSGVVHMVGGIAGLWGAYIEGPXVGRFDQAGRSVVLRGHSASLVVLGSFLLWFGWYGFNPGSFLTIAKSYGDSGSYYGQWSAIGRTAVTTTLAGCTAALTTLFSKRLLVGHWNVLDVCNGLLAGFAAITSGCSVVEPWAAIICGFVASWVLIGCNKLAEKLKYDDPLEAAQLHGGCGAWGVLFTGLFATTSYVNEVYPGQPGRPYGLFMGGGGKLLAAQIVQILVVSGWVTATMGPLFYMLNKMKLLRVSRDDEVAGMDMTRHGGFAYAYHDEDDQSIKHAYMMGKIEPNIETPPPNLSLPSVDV

QsAMT3.2-like (QsAMT3.2) = molecular target: T2, QsAMT3.2-like (QsAMT3.2) (Quercus suber, UniProt Z9KUH6IWZ3); experiment: as above; type: cell-based; details: labelled compound; yeast 31019b; substrate of the Km taken from the methods; read-out: apparent Km
T2 construct: full-length cDNA from ectomycorrhizal cork oak roots in pDR196, expressed in yeast strain 31019b (mep1 mep2 mep3 deleted)
T2 sequence (Z9KUH6IWZ3 1-486): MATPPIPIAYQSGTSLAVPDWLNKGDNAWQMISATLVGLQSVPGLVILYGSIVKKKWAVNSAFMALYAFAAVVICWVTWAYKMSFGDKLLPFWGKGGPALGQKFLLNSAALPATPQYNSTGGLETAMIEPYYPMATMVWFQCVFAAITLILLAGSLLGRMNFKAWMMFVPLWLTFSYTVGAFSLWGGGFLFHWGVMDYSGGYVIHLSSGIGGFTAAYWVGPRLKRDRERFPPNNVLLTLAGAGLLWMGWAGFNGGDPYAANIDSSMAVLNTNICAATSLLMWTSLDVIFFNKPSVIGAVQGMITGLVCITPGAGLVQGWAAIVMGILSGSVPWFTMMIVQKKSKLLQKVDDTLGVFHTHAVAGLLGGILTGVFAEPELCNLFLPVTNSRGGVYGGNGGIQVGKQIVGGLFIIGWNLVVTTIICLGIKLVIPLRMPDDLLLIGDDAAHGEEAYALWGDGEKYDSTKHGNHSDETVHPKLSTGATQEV

SMILES: CN [[14C]-methylammonium]
- Km (QsAMT1.2-like (QsAMT1.2)): 667 µM
- Km (QsAMT3.2-like (QsAMT3.2)): 0.6 µM
